From patent US20260184693A1, “INHIBITORS OF SOLUTE CARRIER FAMILY 6A MEMBER 19 (SLC6A19) AND METHODS OF USE THEREOF” (Maze Therapeutics, Inc., priority 2022, published 2026)

molecular target: T1, human SLC6A19 (Homo sapiens, UniProt Q695T7); assay: Example B2: 13C6,15N-isoleucine uptake, RapidFire mass spectrometry, in CHO cells with doxycycline-inducible expression of human SLC6A19 and TMEM27; format: cell-based; conditions: read-out: SLC6A19_RapidFire Uptake Assay IC50
T1 construct: expressed in transfected cells
T1 sequence (Q695T7 1-634): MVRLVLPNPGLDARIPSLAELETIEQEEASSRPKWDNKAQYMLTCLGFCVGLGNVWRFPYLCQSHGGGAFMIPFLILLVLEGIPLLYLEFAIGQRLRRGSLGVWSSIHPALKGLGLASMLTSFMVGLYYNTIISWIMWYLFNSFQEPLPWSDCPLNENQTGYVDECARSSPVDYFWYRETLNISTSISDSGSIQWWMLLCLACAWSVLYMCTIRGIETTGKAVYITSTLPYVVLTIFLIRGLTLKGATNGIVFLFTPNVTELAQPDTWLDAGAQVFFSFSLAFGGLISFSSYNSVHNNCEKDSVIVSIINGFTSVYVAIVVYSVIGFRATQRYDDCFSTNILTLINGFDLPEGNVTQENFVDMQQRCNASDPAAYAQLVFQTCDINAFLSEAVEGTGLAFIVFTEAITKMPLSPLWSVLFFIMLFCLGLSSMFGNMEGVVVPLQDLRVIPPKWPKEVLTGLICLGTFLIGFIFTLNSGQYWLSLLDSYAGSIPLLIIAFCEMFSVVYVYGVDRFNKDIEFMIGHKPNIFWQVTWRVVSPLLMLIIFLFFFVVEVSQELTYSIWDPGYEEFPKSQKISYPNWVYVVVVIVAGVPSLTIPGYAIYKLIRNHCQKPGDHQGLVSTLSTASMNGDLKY
T1 sequence (Q9HBJ8 15-222 partner): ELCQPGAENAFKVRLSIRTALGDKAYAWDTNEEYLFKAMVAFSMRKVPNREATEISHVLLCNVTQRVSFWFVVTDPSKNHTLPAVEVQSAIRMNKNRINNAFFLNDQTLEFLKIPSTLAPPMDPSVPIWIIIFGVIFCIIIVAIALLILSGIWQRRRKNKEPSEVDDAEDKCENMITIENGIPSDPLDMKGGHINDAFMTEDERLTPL
Procedure: Assay ready vials of CHO cells with doxycycline inducible expression of human SLC6A19 and TMEM27 were thawed, plated in T175 flasks containing DMEM/F12 media, 10% FBS, 100 Penicillin-Streptomycin, 1× UltraGlutamate, 1 mM Sodium Pyruvate, Sodium Bicarbonate (7.5 mL of 7.5% solution in 500 mL media final), […] Blasticidin, 150 µg/mL Hygromycin B Gold, and 500 µg/mL G418, and incubated (humidified, 37° C. with […]) for 48 hours. Media was then removed, flasks were washed with 20 mL of DPBS, and 5 mL of TryμLE™ Express was added to each flask to initiate cell dissociation. After 5 minutes, 10 mL of cell culture media was added to each flask and mixed. The cell suspension was collected and centrifuged for 5 minutes at 200×g. The supernatant was removed, and the pellet was resuspended in 10 mL of cell culture media. Resuspended cells were counted using a Vi-Cell. 30 μL/well (20,000 cells/well) of cell suspension was added to Poly-D-Lysine 384-well black/clear plates. Plates were incubated (humidified, 37° C. with 5% CO2) for 24 hours. To induce expression of human SLC6A19 and TMEM27, 10 μL of assay culture media containing 4 μg/mL doxycycline was added to each well. Assay plates were then incubated (humidified, 37° C. with 5% CO2) overnight. After incubation, the media was removed, and wells were washed 3 times with 40 μL of warmed DPBS. […] All compounds were plated in a duplicate 10-point dilution series that consisted of 2-fold dilutions. The plates were incubated (humidified, 37° C. with 5% CO2) with compound for 20 minutes. Afterwards, 20 μL/well of 2 mM 13C6,15N-1-isoleucine was added to each well and plates were incubated again (humidified, 37° C. with 5% CO2) for another 20 minutes. Assay buffer was then removed, and plates were washed. 70 μL/well of stop solution (75% acetonitrile, 25% HPLC grade water, 250 nM 1-leucine-1-13 C (RapidFire standard)) was added to each well. The plates were sealed and then placed in a −20° C. freezer for 20 minutes. The plates were thawed at room temperature for 20 minutes and then centrifuge for 20 minutes at 3000 rpm. Using an ABSciex API4000 mass spectrometer, processed samples were loaded onto the graphitic carbon SPE-column. The time for aspiration, load/wash, elution and re-equilibration time was 600, 1500, 3000 and 500 milliseconds, respectively. Peak areas were calculated using RapidFire Integrator software.

Compound | IC50
CN(C(=O)NCc1cc2cc(Cl)ccc2[nH]1)[C@@H]1CCCN(C(=O)c2ccccc2)C1 [Compound 52, (R)-1-(1-benzoylpiperidin-3-yl)-3-((5-chloro-1H-indol-2-yl)methyl)-1-methylurea] | 366 nM
CC(=O)NCC(=O)N1CCC[C@@H](N(C)C(=O)NCc2cc3cc(Cl)ccc3[nH]2)C1 [Compound 53, (R)-N-(2-(3-(3-((5-chloro-1H-indol-2-yl)methyl)-1-methylureido)piperidin-1-yl)-2-oxoethyl)acetamide] | 1630 nM
CN(C(=O)NCc1cc2cc(Cl)ccc2[nH]1)[C@@H]1CCCN(C(=O)c2ccn(C)n2)C1 [Compound 54, (R)-3-((5-chloro-1H-indol-2-yl)methyl)-1-methyl-1-(1-(1-methyl-1H-pyrazole-3-carbonyl)piperidin-3-yl)urea] | 401 nM
CN(C(=O)NCc1cc2cc(Cl)ccc2[nH]1)[C@@H]1CCCN(C(=O)c2cnn(C)c2)C1 [Compound 55, (R)-3-((5-chloro-1H-indol-2-yl)methyl)-1-methyl-1-(1-(1-methyl-1H-pyrazole-4-carbonyl)piperidin-3-yl)urea] | 571 nM
CN(C(=O)NCc1cc2cc(Cl)ccc2[nH]1)[C@@H]1CCCN(C(=O)CNC(=O)C(F)(F)F)C1 [Compound 56, (R)-N-(2-(3-(3-((5-chloro-1H-indol-2-yl)methyl)-1-methylureido)piperidin-1-yl)-2-oxoethyl)-2,2,2-trifluoroacetamide] | 2460 nM
CN(C(=O)NCc1cc2cc(Cl)ccc2[nH]1)[C@@H]1CCCN(C(=O)C2(C(F)(F)F)CC2)C1 [Compound 57, (R)-3-((5-chloro-1H-indol-2-yl)methyl)-1-methyl-1-(1-(1-(trifluoromethyl)cyclopropane-1-carbonyl)piperidin-3-yl)urea] | 8640 nM
Cc1[nH]cnc1C(=O)N1CCC[C@@H](N(C)C(=O)NCc2cc3cc(Cl)ccc3[nH]2)C1 [Compound 58, (R)-3-((5-chloro-1H-indol-2-yl)methyl)-1-methyl-1-(1-(5-methyl-1H-imidazole-4-carbonyl)piperidin-3-yl)urea] | 4050 nM
CN(C(=O)NCc1cc2cc(Cl)ccc2[nH]1)[C@@H]1CCCN(C(=O)Cc2ccn[nH]2)C1 [Compound 59, (R)-1-(1-(2-(1H-pyrazol-5-yl)acetyl)piperidin-3-yl)-3-((5-chloro-1H-indol-2-yl)methyl)-1-methylurea] | 529 nM
CN(C(=O)NCc1cc2cc(Cl)ccc2[nH]1)[C@@H]1CCCN(C(=O)C2CCC(=O)N2)C1 (stereo partly drawn) [Compound 60, 3-((5-chloro-1H-indol-2-yl)methyl)-1-methyl-1-((3R)-1-(5-oxopyrrolidine-2-carbonyl)piperidin-3-yl)urea] | 7780 nM
CN(C(=O)NCc1cc2cc(Cl)ccc2[nH]1)[C@@H]1CCCN(C(=O)C2CCCO2)C1 (stereo partly drawn) [Compound 61, 3-((5-chloro-1H-indol-2-yl)methyl)-1-methyl-1-((3R)-1-(tetrahydrofuran-2-carbonyl)piperidin-3-yl)urea] | 542 nM
CN(C(=O)NCc1cc2cc(Cl)ccc2[nH]1)[C@@H]1CCCN(C(=O)Cc2cnccn2)C1 [Compound 62, (R)-3-((5-chloro-1H-indol-2-yl)methyl)-1-methyl-1-(1-(2-(pyrazin-2-yl)acetyl)piperidin-3-yl)urea] | 1350 nM
CN(C(=O)NCc1cc2cc(Cl)ccc2[nH]1)[C@@H]1CCCN(C(=O)c2ccc(O)cc2F)C1 [Compound 63, (R)-3-((5-chloro-1H-indol-2-yl)methyl)-1-(1-(2-fluoro-4-hydroxybenzoyl)piperidin-3-yl)-1-methylurea] | 935 nM
CN(C(=O)NCc1cc2cc(Cl)ccc2[nH]1)[C@@H]1CCCN(C(=O)[C@H]2C[C@H](O)C2)C1 [Compound 64, trans-(R)-3-((5-chloro-1H-indol-2-yl)methyl)-1-(1-(3-hydroxycyclobutane-1-carbonyl)piperidin-3-yl)-1-methylurea] | 651 nM
